Assay results published in patent publication US6737383B1, “Herbicidal oxadiazolidines” (priority 1999, dated 2004).

Experiments:
pigweed = experiment: Test B pre/postemergence pigweed; format: in vivo, Amaranthus retroflexus
Procedure, shortened: (§1)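 Response is a visual 0-to-10 score relative to untreated plants, where 0 means no effect and 10 means complete control, taken twelve to sixteen days after application. Treatments went onto soil at planting and onto foliage of 1- to 4-leaf plants, using a surfactant-containing non-phytotoxic solvent.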

giant foxtail = experiment: Test B pre/postemergence giant foxtail; format: in vivo, Setaria faberii
Procedure, shortened: as §1

sugar beet = experiment: Test B pre/postemergence sugar beet; format: in vivo, Beta vulgaris
Procedure, shortened: as §1

purple nutsedge = experiment: Test B pre/postemergence purple nutsedge; format: in vivo, Cyperus rotundus
Procedure, shortened: as §1

velvetleaf = experiment: Test B pre/postemergence velvetleaf; format: in vivo, Abutilon theophrasti
Procedure, shortened: as §1

blackgrass = experiment: Test B pre/postemergence blackgrass; format: in vivo, Alopecurus myosuroides
Procedure, shortened: as §1

corn = experiment: Test B pre/postemergence corn; format: in vivo, Zea mays
Procedure, shortened: as §1

soybean = experiment: Test B pre/postemergence soybean; format: in vivo, Glycine max
Procedure, shortened: as §1

rape = experiment: Test B pre/postemergence rape; format: in vivo, Brassica napus
Procedure, shortened: as §1

wild oat = experiment: Test B pre/postemergence wild oat; format: in vivo, Avena fatua
Procedure, shortened: as §1

wheat = experiment: Test B pre/postemergence wheat; format: in vivo, Triticum aestivum
Procedure, shortened: as §1

surinam grass = experiment: Test B pre/postemergence surinam grass; format: in vivo, Brachiaria decumbens
Procedure, shortened: as §1

bedstraw = experiment: Test B pre/postemergence bedstraw; format: in vivo, Galium aparine
Procedure, shortened: as §1

cocklebur = experiment: Test B pre/postemergence cocklebur; format: in vivo, Xanthium strumarium
Procedure, shortened: as §1

morningglory = experiment: Test B pre/postemergence morningglory; format: in vivo, Ipomoea hederacea
Procedure, shortened: as §1

crabgrass = experiment: Test B pre/postemergence crabgrass; format: in vivo, Digitaria sanguinalis
Procedure, shortened: as §1

[1] = Postemergence, Rate 62 g/ha, scale of 0 to 10, 0 is no effect, 10 is complete control
[2] = Postemergence, Rate 125 g/ha, scale 0 to 10, 0 is no effect, 10 is complete control
[3] = Postemergence, Rate 500 g/ha, scale 0 to 10, 0 is no effect, 10 is complete control
[4] = Preemergence, Rate 62 g/ha, scale 0 to 10 (0 no effect, 10 complete control)
[5] = Preemergence, Rate 125 g/ha, scale 0 to 10, 0 is no effect, 10 is complete control
[6] = Rate 250 g/ha, Postemergence, scale of 0 to 10 where 0 is no effect and 10 is complete control
[7] = Preemergence, Rate 500 g/ha, scale of 0 to 10 where 0 is no effect and 10 is complete control

Q: How did the “Redroot pigweed plant response rating” value (pigweed; [1]) turn out when COC(=O)CCCn1c(=O)on(C(=O)N(c2ccc(Cl)cc2)C(C)C)c1=O [Compound 543] was run?
A: 0

Q: And the “Redroot pigweed plant response rating” value (pigweed; [2])?
A: 0

Q: And the “Plant response rating, Redroot pigweed” value (pigweed; [3])?
A: 0

Q: What about the “Redroot pigweed plant response rating” value (pigweed; [4]) of the same molecule?
A: 7

Q: And the “Redroot pigweed plant response rating” value (pigweed; [5])?
A: 7

Q: What about the “Redroot pigweed plant response rating (0 to 10 scale)” value (pigweed; Preemergence, Rate 250 g/ha) of the same molecule?
A: 9

Q: What about the “Plant response rating, Redroot pigweed” value (pigweed; [6]) of the same molecule?
A: 0

Q: And the “Giant foxtail plant response rating” value (giant foxtail; [1])?
A: 0

Q: What about the “Giant foxtail plant response rating” value (giant foxtail; [2]) of the same molecule?
A: 0

Q: What about the “Plant response rating, Giant foxtail” value (giant foxtail; [3]) of the same molecule?
A: 3

Q: What about the “Giant foxtail plant response rating” value (giant foxtail; [4]) of the same molecule?
A: 3

Q: What about the “Giant foxtail plant response rating” value (giant foxtail; [5]) of the same molecule?
A: 3

Q: And the “Giant foxtail plant response rating (0 to 10 scale)” value (giant foxtail; Preemergence, Rate 250 g/ha)?
A: 9

Q: What about the “Giant foxtail plant response rating” value (giant foxtail; [7]) of the same molecule?
A: 9

Q: And the “Plant response rating, Giant foxtail” value (giant foxtail; [6])?
A: 0

Q: What about the “Sugarbeets plant response rating” value (sugar beet; [1]) of the same molecule?
A: 0

Q: And the “Sugarbeets plant response rating” value (sugar beet; [2])?
A: 0

Q: What about the “Plant response rating, Sugarbeets” value (sugar beet; [3]) of the same molecule?
A: 3

Q: And the “Sugarbeets plant response rating” value (sugar beet; [4])?
A: 4

Q: And the “Sugarbeets plant response rating” value (sugar beet; [5])?
A: 5

Q: What about the “Sugarbeets plant response rating (0 to 10 scale)” value (sugar beet; Preemergence, Rate 250 g/ha) of the same molecule?
A: 6

Q: And the “Plant response rating, Sugarbeets” value (sugar beet; [6])?
A: 2

Q: What about the “Nutsedge plant response rating” value (purple nutsedge; [1]) of the same molecule?
A: 0

Q: And the “Nutsedge plant response rating” value (purple nutsedge; [2])?
A: 0

Q: What about the “Plant response rating, Nutsedge” value (purple nutsedge; [3]) of the same molecule?
A: 0

Q: And the “Nutsedge plant response rating” value (purple nutsedge; [4])?
A: 0

Q: What about the “Nutsedge plant response rating” value (purple nutsedge; [5]) of the same molecule?
A: 0

Q: What about the “Nutsedge plant response rating (0 to 10 scale)” value (purple nutsedge; Preemergence, Rate 250 g/ha) of the same molecule?
A: 0

Q: What about the “Nutsedge plant response rating” value (purple nutsedge; [7]) of the same molecule?
A: 8

Q: And the “Plant response rating, Nutsedge” value (purple nutsedge; [6])?
A: 0

Q: What about the “Velvetleaf plant response rating” value (velvetleaf; [1]) of the same molecule?
A: 0

Q: What about the “Velvetleaf plant response rating” value (velvetleaf; [2]) of the same molecule?
A: 0

Q: What about the “Plant response rating, Velvetleaf” value (velvetleaf; [3]) of the same molecule?
A: 3

Q: And the “Velvetleaf plant response rating” value (velvetleaf; [4])?
A: 0

Q: And the “Velvetleaf plant response rating” value (velvetleaf; [5])?
A: 0

Q: And the “Velvetleaf plant response rating (0 to 10 scale)” value (velvetleaf; Preemergence, Rate 250 g/ha)?
A: 0

Q: What about the “Velvetleaf plant response rating” value (velvetleaf; [7]) of the same molecule?
A: 0

Q: What about the “Plant response rating, Velvetleaf” value (velvetleaf; [6]) of the same molecule?
A: 0

Q: What about the “Blackgrass plant response rating” value (blackgrass; [1]) of the same molecule?
A: 0

Q: What about the “Blackgrass plant response rating” value (blackgrass; [2]) of the same molecule?
A: 0

Q: What about the “Plant response rating, Blackgrass” value (blackgrass; [3]) of the same molecule?
A: 2

Q: And the “Blackgrass plant response rating” value (blackgrass; [4])?
A: 0

Q: And the “Blackgrass plant response rating” value (blackgrass; [5])?
A: 0

Q: What about the “Blackgrass plant response rating (0 to 10 scale)” value (blackgrass; Preemergence, Rate 250 g/ha) of the same molecule?
A: 0

Q: What about the “Blackgrass plant response rating” value (blackgrass; [7]) of the same molecule?
A: 2

Q: And the “Plant response rating, Blackgrass” value (blackgrass; [6])?
A: 0

Q: What about the “Corn plant response rating” value (corn; [1]) of the same molecule?
A: 0

Q: What about the “Corn plant response rating” value (corn; [2]) of the same molecule?
A: 0

Q: What about the “Plant response rating, Corn” value (corn; [3]) of the same molecule?
A: 0

Q: What about the “Corn plant response rating” value (corn; [4]) of the same molecule?
A: 0

Q: What about the “Corn plant response rating” value (corn; [5]) of the same molecule?
A: 0

Q: What about the “Corn plant response rating (0 to 10 scale)” value (corn; Preemergence, Rate 250 g/ha) of the same molecule?
A: 0

Q: What about the “Corn plant response rating” value (corn; [7]) of the same molecule?
A: 0

Q: What about the “Plant response rating, Corn” value (corn; [6]) of the same molecule?
A: 0

Q: What about the “Soybean plant response rating” value (soybean; [1]) of the same molecule?
A: 0

Q: What about the “Soybean plant response rating” value (soybean; [2]) of the same molecule?
A: 2

Q: What about the “Plant response rating, Soybean” value (soybean; [3]) of the same molecule?
A: 2

Q: And the “Soybean plant response rating” value (soybean; [4])?
A: 0

Q: And the “Soybean plant response rating” value (soybean; [5])?
A: 0

Q: And the “Soybean plant response rating (0 to 10 scale)” value (soybean; Preemergence, Rate 250 g/ha)?
A: 2

Q: What about the “Soybean plant response rating” value (soybean; [7]) of the same molecule?
A: 2

Q: What about the “Plant response rating, Soybean” value (soybean; [6]) of the same molecule?
A: 2

Q: And the “Rape plant response rating” value (rape; [1])?
A: 0

Q: What about the “Rape plant response rating” value (rape; [2]) of the same molecule?
A: 0

Q: And the “Plant response rating, Rape” value (rape; [3])?
A: 0

Q: And the “Rape plant response rating” value (rape; [4])?
A: 0

Q: And the “Rape plant response rating” value (rape; [5])?
A: 0

Q: And the “Rape plant response rating (0 to 10 scale)” value (rape; Preemergence, Rate 250 g/ha)?
A: 0

Q: And the “Rape plant response rating” value (rape; [7])?
A: 0

Q: And the “Plant response rating, Rape” value (rape; [6])?
A: 0

Q: What about the “Wild oats plant response rating” value (wild oat; [1]) of the same molecule?
A: 0

Q: What about the “Wild oats plant response rating” value (wild oat; [2]) of the same molecule?
A: 0

Q: And the “Plant response rating, Wild oats” value (wild oat; [3])?
A: 3

Q: What about the “Wild oats plant response rating” value (wild oat; [4]) of the same molecule?
A: 0

Q: And the “Wild oats plant response rating” value (wild oat; [5])?
A: 0

Q: And the “Wild oats plant response rating (0 to 10 scale)” value (wild oat; Preemergence, Rate 250 g/ha)?
A: 0

Q: And the “Wild oats plant response rating” value (wild oat; [7])?
A: 0

Q: What about the “Plant response rating, Wild oats” value (wild oat; [6]) of the same molecule?
A: 0

Q: And the “Wheat plant response rating” value (wheat; [1])?
A: 0

Q: What about the “Wheat plant response rating” value (wheat; [2]) of the same molecule?
A: 0

Q: And the “Plant response rating, Wheat” value (wheat; [3])?
A: 0

Q: And the “Wheat plant response rating” value (wheat; [4])?
A: 0

Q: And the “Wheat plant response rating” value (wheat; [5])?
A: 0

Q: And the “Wheat plant response rating (0 to 10 scale)” value (wheat; Preemergence, Rate 250 g/ha)?
A: 0

Q: And the “Wheat plant response rating” value (wheat; [7])?
A: 0

Q: What about the “Plant response rating, Wheat” value (wheat; [6]) of the same molecule?
A: 0

Q: And the “B. signalgrass plant response rating” value (surinam grass; [1])?
A: 0

Q: And the “B. signalgrass plant response rating” value (surinam grass; [2])?
A: 0

Q: What about the “Plant response rating, B. signalgrass” value (surinam grass; [3]) of the same molecule?
A: 3

Q: And the “B. signalgrass plant response rating” value (surinam grass; [4])?
A: 0

Q: What about the “B. signalgrass plant response rating” value (surinam grass; [5]) of the same molecule?
A: 4

Q: And the “B. signalgrass plant response rating (0 to 10 scale, 0 is no effect, 10 is complete control)” value (surinam grass; Preemergence, Rate 250 g/ha)?
A: 4

Q: And the “B. signalgrass plant response rating” value (surinam grass; [7])?
A: 6

Q: What about the “Plant response rating, B. signalgrass” value (surinam grass; [6]) of the same molecule?
A: 3

Q: And the “Bedstraw plant response rating” value (bedstraw; [1])?
A: 0

Q: And the “Bedstraw plant response rating” value (bedstraw; [2])?
A: 0

Q: And the “Plant response rating, Bedstraw” value (bedstraw; [3])?
A: 2

Q: And the “Bedstraw plant response rating” value (bedstraw; [5])?
A: 0

Q: What about the “Bedstraw plant response rating (0 to 10 scale)” value (bedstraw; Preemergence, Rate 250 g/ha) of the same molecule?
A: 0

Q: And the “Bedstraw plant response rating” value (bedstraw; [7])?
A: 0

Q: What about the “Cocklebur plant response rating” value (cocklebur; [1]) of the same molecule?
A: 0

Q: What about the “Cocklebur plant response rating” value (cocklebur; [2]) of the same molecule?
A: 0

Q: And the “Plant response rating, Cocklebur” value (cocklebur; [3])?
A: 1

Q: What about the “Cocklebur plant response rating” value (cocklebur; [5]) of the same molecule?
A: 0

Q: What about the “Cocklebur plant response rating (0 to 10 scale)” value (cocklebur; Preemergence, Rate 250 g/ha) of the same molecule?
A: 0

Q: And the “Cocklebur plant response rating” value (cocklebur; [7])?
A: 10

Q: And the “Plant response rating, Cocklebur” value (cocklebur; [6])?
A: 0

Q: What about the “Morningglory plant response rating” value (morningglory; [1]) of the same molecule?
A: 1

Q: What about the “Morningglory plant response rating” value (morningglory; [2]) of the same molecule?
A: 2

Q: What about the “Plant response rating, Morningglory” value (morningglory; [3]) of the same molecule?
A: 7

Q: And the “Morningglory plant response rating” value (morningglory; [4])?
A: 0

Q: And the “Morningglory plant response rating” value (morningglory; [5])?
A: 0

Q: And the “Morningglory plant response rating (0 to 10 scale)” value (morningglory; Preemergence, Rate 250 g/ha)?
A: 0

Q: What about the “Morningglory plant response rating” value (morningglory; [7]) of the same molecule?
A: 0

Q: What about the “Plant response rating, Morningglory” value (morningglory; [6]) of the same molecule?
A: 4

Q: And the “Crabgrass plant response rating” value (crabgrass; [1])?
A: 0

Q: What about the “Plant response rating, Crabgrass” value (crabgrass; [3]) of the same molecule?
A: 7

Q: And the “Crabgrass plant response rating” value (crabgrass; [4])?
A: 4

Q: And the “Crabgrass plant response rating” value (crabgrass; [5])?
A: 4

Q: What about the “Crabgrass plant response rating (0 to 10 scale)” value (crabgrass; Preemergence, Rate 250 g/ha) of the same molecule?
A: 6

Q: What about the “Plant response rating, Crabgrass” value (crabgrass; [6]) of the same molecule?
A: 3
